From ChEMBL document CHEMBL4819089, “Magnolol, a natural aldehyde dehydrogenase-2 agonist, inhibits the proliferation and collagen synthesis of cardiac fibroblasts” (Bioorg Med Chem Lett, 2021)
Blank lines part the entries; values can stand above or below the molecule they belong to. Activity calls are given as the source filed them. The rule behind the calls is not given here.

How the values were obtained:
[1] = tested on: Cardiac fibroblast; experiment: Anti-myocardial fibrosis activity against cardiac fibroblasts (unknown origin) assessed as reduction in CDK4 protein expression at 30 uM measured after 24 hrs by western blot analysis; format: functional, tissue-based
[2] = tested on: Cardiac fibroblast; experiment: Anti-myocardial fibrosis activity against cardiac fibroblasts (unknown origin) assessed as reduction in cyclinD1 protein expression at 30 uM measured after 24 hrs by western blot analysis; format: functional, tissue-based
[3] = tested on: Cardiac fibroblast; experiment: Anti-myocardial fibrosis activity against cardiac fibroblasts (unknown origin) assessed as inhibition of cell viability at 30 uM measured after 24 hrs by MTT assay; format: functional, tissue-based
[4] = tested on: Cardiac fibroblast; experiment: Anti-myocardial fibrosis activity against cardiac fibroblasts (unknown origin) assessed as inhibition of cell proliferation at 30 uM measured after 24 hrs by EdU incorporation based assay; format: functional, tissue-based
[5] = tested on: Cardiac fibroblast; experiment: Anti-myocardial fibrosis activity against cardiac fibroblasts (unknown origin) assessed as reduction in collagen synthesis by measuring reduction in type3 collagen protein expression at 30 uM measured after 24 hrs by western blot analysis; format: functional
[6] = tested on: Cardiac fibroblast; experiment: Anti-myocardial fibrosis activity against cardiac fibroblasts (unknown origin) assessed as reduction in collagen synthesis by measuring reduction in type1 collagen protein expression at 30 uM measured after 24 hrs by western blot analysis; format: functional
[7] = tested on: Cardiac fibroblast; experiment: Anti-myocardial fibrosis activity against cardiac fibroblasts (unknown origin) assessed as inhibition of cell viability measured after 24 hrs in presence of ALDH2 inhibitor, daidzin by MTT assay; format: functional, tissue-based
[8] = tested on: Cardiac fibroblast; experiment: Anti-myocardial fibrosis activity against cardiac fibroblasts (unknown origin) assessed as inhibition of cell proliferation measured after 24 hrs in presence of ALDH2 inhibitor, daidzin by EdU incorporation based analysis; format: functional, tissue-based
[9] = tested on: Cardiac fibroblast; experiment: Effect on Bax protein expression in cardiac fibroblasts (unknown origin) at 5 to 20 uM incubated for 24 hrs by western blot analysis; format: functional, tissue-based; details: dose 5-20 µM
[10] = tested on: Cardiac fibroblast; experiment: Anti-myocardial fibrosis activity against cardiac fibroblasts (unknown origin) assessed as reduction in collagen synthesis by measuring reduction in type3 collagen protein expression measured after 24 hrs in presence of ALDH2 inhibitor, daidzin by western blot analysis; format: functional, tissue-based
[11] = tested on: Cardiac fibroblast; experiment: Anti-myocardial fibrosis activity against cardiac fibroblasts (unknown origin) assessed as inhibition of cell viability measured after 24 hrs by MTT assay; format: functional, tissue-based; details: dose 5-20 µM
[12] = tested on: Cardiac fibroblast; experiment: Effect on Bcl2 protein expression in cardiac fibroblasts (unknown origin) at 5 to 20 uM incubated for 24 hrs by western blot analysis; format: functional, tissue-based; details: dose 5-20 µM
[13] = tested on: Cardiac fibroblast; experiment: Anti-myocardial fibrosis activity against cardiac fibroblasts (unknown origin) assessed as reduction in cyclinD1 protein expression measured after 24 hrs by western blot analysis; format: functional, tissue-based; details: dose 5-20 µM
[14] = tested on: Cardiac fibroblast; experiment: Anti-myocardial fibrosis activity against cardiac fibroblasts (unknown origin) assessed as inhibition of cell viability at 20 uM measured for 120 hrs by MTT assay; format: functional, tissue-based
[15] = target: T1, Aldehyde dehydrogenase, mitochondrial (Homo sapiens) (UniProt P05091); experiment: Binding affinity to ALDH2 (unknown origin) by surface plasmon resonance analysis; details: filed as agonist
T1 sequence (whole entry): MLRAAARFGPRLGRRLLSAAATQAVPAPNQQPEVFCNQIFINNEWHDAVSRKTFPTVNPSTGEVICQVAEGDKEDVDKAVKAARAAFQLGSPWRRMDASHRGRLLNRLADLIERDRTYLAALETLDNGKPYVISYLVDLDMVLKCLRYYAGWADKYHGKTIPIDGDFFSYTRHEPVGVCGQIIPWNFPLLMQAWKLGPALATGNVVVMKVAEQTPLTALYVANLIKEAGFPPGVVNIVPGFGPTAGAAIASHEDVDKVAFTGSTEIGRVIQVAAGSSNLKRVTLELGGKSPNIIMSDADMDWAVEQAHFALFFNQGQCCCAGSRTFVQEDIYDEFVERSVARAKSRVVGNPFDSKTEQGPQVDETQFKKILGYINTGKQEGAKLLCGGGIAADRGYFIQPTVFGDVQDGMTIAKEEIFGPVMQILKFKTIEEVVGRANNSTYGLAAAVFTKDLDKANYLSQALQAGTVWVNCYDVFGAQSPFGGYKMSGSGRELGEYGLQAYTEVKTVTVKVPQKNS

[16] = tested on: Cardiac fibroblast; experiment: Anti-myocardial fibrosis activity against cardiac fibroblasts (unknown origin) assessed as reduction in collagen synthesis by measuring reduction in type1 collagen protein expression measured after 24 hrs by western blot analysis; format: functional, tissue-based; details: dose 5-20 µM
[17] = tested on: Cardiac fibroblast; experiment: Anti-myocardial fibrosis activity against cardiac fibroblasts (unknown origin) assessed as reduction in collagen synthesis by measuring reduction in type3 collagen protein expression measured after 24 hrs by western blot analysis; format: functional; details: dose 5-20 µM
[18] = tested on: Cardiac fibroblast; experiment: Anti-myocardial fibrosis activity against cardiac fibroblasts (unknown origin) assessed as reduction in collagen synthesis by measuring reduction in type1 collagen protein expression measured after 24 hrs in presence of ALDH2 inhibitor, daidzin by western blot analysis; format: functional, tissue-based
[19] = tested on: Cardiac fibroblast; experiment: Effect on Bcl2 protein expression in cardiac fibroblasts (unknown origin) measured after 24 hrs in presence of ALDH2 inhibitor, daidzin by western blot analysis; format: functional, tissue-based
[20] = target: T1, Aldehyde dehydrogenase, mitochondrial (Homo sapiens); experiment: Agonist activity at ALDH2 in cardiac fibroblasts (unknown origin) measured after 24 hrs by ELISA; format: tissue-based; details: Cardiac fibroblast, filed as agonist, dose 5-20 µM
[21] = tested on: Cardiac fibroblast; experiment: Anti-myocardial fibrosis activity against cardiac fibroblasts (unknown origin) assessed as reduction in CDK4 protein expression measured after 24 hrs in presence of ALDH2 inhibitor, daidzin by western blot analysis; format: functional, tissue-based
[22] = target: T2, Aldehyde dehydrogenase, mitochondrial (Homo sapiens, UniProt P05091); experiment: (§1) Agonist activity at human recombinant ALDH2 measured after 1 hr
T2 sequence (P05091 whole entry): T1 sequence (whole entry)

[23] = target: T1, Aldehyde dehydrogenase, mitochondrial (Homo sapiens); experiment: as §1; details: filed as agonist
[24] = tested on: Cardiac fibroblast; experiment: Effect on ALDH2 expression in cardiac fibroblasts (unknown origin) at 5 to 20 uM measured after 24 hrs by western blot analysis; format: functional, tissue-based; details: dose 5-20 µM
[25] = tested on: Cardiac fibroblast; experiment: Anti-myocardial fibrosis activity against cardiac fibroblasts (unknown origin) assessed as inhibition of cell proliferation measured after 24 hrs by EdU incorporation based assay; format: functional, tissue-based; details: dose 5-20 µM
[26] = tested on: Cardiac fibroblast; experiment: Effect on Bax protein expression in cardiac fibroblasts (unknown origin) measured after 24 hrs in presence of ALDH2 inhibitor, daidzin by western blot analysis; format: functional, tissue-based
[27] = tested on: Cardiac fibroblast; experiment: Anti-myocardial fibrosis activity against cardiac fibroblasts (unknown origin) assessed as reduction in cyclinD1 protein expression measured after 24 hrs in presence of ALDH2 inhibitor, daidzin by western blot analysis; format: functional, tissue-based
[28] = tested on: Cardiac fibroblast; experiment: Anti-myocardial fibrosis activity against cardiac fibroblasts (unknown origin) assessed as reduction in CDK4 protein expression measured after 24 hrs by western blot analysis; format: functional, tissue-based; details: dose 5-20 µM

SMILES: O=C(NCc1ccc2c(c1)OCO2)c1c(Cl)cccc1Cl
Activity [1]: Active | Activity [2]: Active | Activity [3]: Active | Activity [4]: Active | Activity [5]: Active | Activity [6]: Active

Activity [15]: 7.07 10^-6M | Activity [20]: Dose-Dependent Effect | EC50 [22]: 57.9 µM | Activity [23]: Dose-Dependent Effect
SMILES: C=CCc1ccc(O)c(-c2cc(CC=C)ccc2O)c1 [MAGNOLOL]
Activity [7]: inactive | Activity [8]: inactive | Activity [9]: inactive | Activity [10]: inactive | Activity [11]: Dose-Dependent Effect | Activity [12]: inactive | Activity [13]: Dose-Dependent Effect | Activity [14]: Active | Activity [16]: Dose-Dependent Effect | Activity [17]: Dose-Dependent Effect | Activity [18]: inactive | Activity [19]: inactive | Activity [21]: inactive | Activity [24]: inactive | Activity [25]: Dose-Dependent Effect | Activity [26]: inactive | Activity [27]: inactive | Activity [28]: Dose-Dependent Effect
